Source: patent US20130023504A1, “Modulation of Prostaglandin/Cyclooxygenase Metabolic Pathways” (HUNTER-FLEMING LIMITED, priority 2006, published 2013)
Where “and” joins values, the source holds several entries; their conditions need not be identical. Equal values may be shown once.

Assays:
[1] = test system: control rats without colitis; test: Colonic prostaglandin levels and COX-2/PG synthase mRNA in control rats without colitis; type: in vivo, rat
Experimental: After a 7-day adaptation period, animals were divided into two control groups (sham-control and 7β-hydroxy-EPIA-treated control group and two colitis groups (colitis and 7β-hydroxy-EPIA-treated colitis). 7β-Hydroxy-EPIA (0.01, 0.1, and 1 mg/kg body weight dissolved in DMSO) or DMSO alone (vehicle) was administered i.p. once a day for 7 days, from day 0 to day 7. Colitis was induced from day 7 to 14 by addition of DSS (molecular weight 36-50 kDa; MP Biomedicals, France) to drinking water. The two control groups received tap water only.
Commercially available EIA kits were used for the determination of PGE2 levels (Oxford Biomedical Research, UK) and 15d-PGJ2 levels (Assay designs, Euromedex, France) in colonic supernatants obtained from fresh homogenates. Measurement of PGD2 levels was obtained using the prostaglandin D2-MOX EIA kit (Cayman Chemical, Euromedex). In this case, and prior to assay, the fresh samples were immediately treated with the MOX-HCl reagent which converted PGD2 into PGD2-MOX, thus preventing any further chemical degradation.
Total RNA from fresh colonic samples (300 mg) was extracted using Trizol Reagent (Invitrogen, Cergy-Pontoise, France). Poly(A) RNA was purified from total RNA with MicroPoly(A)Purist kit (Ambion, Huntingdon, UK). cDNA was synthesized using the Superscript first strand synthesis system kit (Invitrogen). Real-time PCR was performed using mixtures (25 μL) containing 2.5× RealMaster Mix/20×SYBR solution (11.25 μL) (Eppendorf, Le Pecq, France) and 300 nM forward and reverse primers. Reactions were run on a RealPlex ep gradient S mastercycler (Eppendorf). The cycling conditions were at 95° C. for 10 minutes and 40 cycles at 95° C., 55° C. and 68° C. for 15 seconds, 30 seconds and 30 seconds, respectively. Each assay included a standard curve of four serial dilution points of control cDNA. Oligonucleotide primers were synthesized by Genecust/Distribio (Evry, France). The specificity of the amplified product was monitored by examination of the product melting curve and confirmed by analysis on agarose gel electrophoresis. The levels of mRNA were expressed relative to that of the DMSO control, after normalization to HPRT1.

[2] = test system: rat sensory neurones; test: Cisplatin-induced neuronal cell death, number of cell bodies per field in dorsal root ganglia sensory neurones (anti MAP-2); type: cell-based; details: for % Control without cisplatin (cell bodies) / number of cell bodies per field, Average: cisplatin 3 μg/ml
Experimental: Primary cultures of dissociated dorsal root ganglia sensory neurones were incubated with 3 μg/ml cisplatin, with and without 7β-OH EPIA for 48 hours and 72 hours and the following parameters were evaluated:
neurone cell bodies stained with an anti MAP 2 antibody (microtubule associated protein 2)
Rat sensory neurones were prepared according to the method described by Hall et al 1997 [Hall et al. (J. Neurosci. 1997 Apr. 15; 17(8); 2775-84]. Briefly, a female rat (15 days gestation) was killed by cervical dislocation (Rats Wistar; Janvier, Le Genest-St-lsle, France) and the foetuses removed from the uterus. Their spinal cords with the dorsal root ganglia (DRG) were removed and placed in ice-cold medium of Leibovitz (L15, Fisher 11415-049) containing Penicillin 50 UI/ml-Streptomycin 50 μg/ml (PS, 1%) and bovine serum albuminutes (BSA 1%, Sigma A6003). The DRG were recovered and dissociated by trypsinisation for 20 minutes at 37° C. (trypsin EDTA 10×, 10%, Fisher 15400054) diluted in PBS without calcium and magnesium (Fisher 2007-03). The reaction was stopped by addition of Dulbecco modified Eagle medium (DMEM, Fisher 21969-035) containing DNase I grade II (0.1 mg/ml Roche diagnostic 104159) and foetal bovine serum (FBS 10%, Fisher 10270-098). The cell suspension was triturated with a 10 ml pipette and centrifuged at 350×g for 10 minutes at room temperature. The pellet of dissociated cells was then resuspended in defined culture medium.
Viable cells were counted in a Neubauer cytometer using the trypan blue exclusion test (Sigma) and seeded at a density of 30 000 cells/well in 96 well-plates (Nunc). Wells were pre-coated with poly-L-lysine (10 μg/ml, Sigma P2636) in ultra pure sterile water (Merck Eurolab 60759.01).
Cells were allowed to adhere for 2 h and maintained in a humidified incubator at 37° C. in 5% CO2/95% air atmosphere.
After 5 days of culture, the culture medium was changed into a defined culture medium following the different conditions described below:
Test compound 7β-OH EPIA (1 nM, 10 nM and 100 nM)+cisplatin (3 μg/ml)
Reference compound NGF (10 ng/ml)+cisplatin (3 μg/ml)
Six wells per condition were carried out to assess neuronal survival. After 48 hours and 72 hours of incubation, the neuronal cells were fixed for 5 minutes in an ethanol/acetic acid solution (95%/5%) at −20° C. and rinsed 3 times in PBS.
Cell bodies of sensory neurones were labelled by monoclonal anti MAP-2 antibody (Sigma M4403) and the neurite of sensory neurones were labelled by monoclonal β-Tubulin antibody (Sigma T8660). These antibodies were diluted at 1:400 in incubation solution (PBS with 5% of FCS and 0.1% of saponin, Sigma S-7900). These antibodies specifically label neurone cell bodies and neuritis, respectively.
After 2 hours of incubation, the cells were washed in PBS and incubated with Alexa Fluor 488 goat anti mouse IgG (Molecular Probes A11001) diluted at 1:300 in incubation solution to reveal the MAP-2 and the β-Tubulin antibodies. Cell nuclei were stained with a fluorescent marker (Hoechst staining solution, SIGMA H6024, 1 μg/ml in incubation solution during 1 hour).
For each condition, 2 pictures per well (12 pictures per condition) were taken using In Cell Analyzer 1000 (Amersham Biosciences) controlled by the computer software In Cell Analyzer 1000 3.2. For the MAP-2 labelling, the magnification was ×10, for the β-Tubulin labelling, the magnification was ×20. For each labelling, all the images were taken in the same conditions.
Analysis of the number of cell bodies labelled with anti-MAP-2 antibodies, and total length of neurites labelled with anti β-Tubulin antibodies, were carried out using In Cell Analyzer 1000 3.2.Workstation software. The results were expressed in percentage compared to the vehicle. The comparisons of each group were carried out using the unpaired T test.

CC12CCC3C(C1CCC2=O)[C@@H](O)C[C@H]1C[C@@H](O)CCC31C (stereo partly drawn) [Compound 7β-OH-EPIA, 7β-hydroxy-EPIAndrosterone]
increase of colonic 15d-PGJ2 above basal levels ([1]; 0.1 mg/kg day 0 to day 7, day 2): 51 fold | increase in COX-2 mRNA levels ([1]; 0.1 mg/kg, at 15 h): 1.5 fold | mPGES-1 mRNA expression ([1]; 0.1 mg/kg, between 6 h and 15 h): increased transiently | H-PGDS mRNA synthesis ([1]; 0.1 mg/kg, course of the experiment): remained unchanged | PGE2 and PGD2 colonic tissue levels ([1]; control rats without colitis): did not alter | reduction of cisplatin-induced cell death ([2]; 1 nM, 48 hours): 53.1% | reduction of cisplatin-induced cell death ([2]; 1 nM, 72 hours): 93% | % Control without cisplatin (cell bodies) ([2]; 1 nM, 48 hours): 85% | number of cell bodies per field, Average ([2]; 1 nM, 48 hours): 51 and 51.42 | % Control without cisplatin (cell bodies) ([2]; 1 nM, 72 hours): 98% | number of cell bodies per field, Average ([2]; 1 nM, 72 hours): 52 and 52.42 | reduction of cisplatin-induced cell death ([2]; 10 nM, 48 hours): 18.7% | reduction of cisplatin-induced cell death ([2]; 10 nM, 72 hours): 104% | % Control without cisplatin (cell bodies) ([2]; 10 nM, 48 hours): 75% | number of cell bodies per field, Average ([2]; 10 nM, 48 hours): 45 and 45.50 | % Control without cisplatin (cell bodies) ([2]; 10 nM, 72 hours): 1.2% | number of cell bodies per field, Average ([2]; 10 nM, 72 hours): 55 and 54.58 | reduction of cisplatin-induced cell death ([2]; 100 nM, 48 hours): 43.8% | reduction of cisplatin-induced cell death ([2]; 100 nM, 72 hours): 93% | % Control without cisplatin (cell bodies) ([2]; 100 nM, 48 hours): 82% | number of cell bodies per field, Average ([2]; 100 nM, 48 hours): 50 and 49.58 | % Control without cisplatin (cell bodies) ([2]; 100 nM, 72 hours): 97% | number of cell bodies per field, Average ([2]; 100 nM, 72 hours): 52 and 52.25
